From publication PMC10301432, “Antiplasmodial, Trypanocidal, and Genotoxicity In Vitro Assessment of New Hybrid α,α-Difluorophenylacetamide-statin Derivatives” (Pharmaceuticals, 2023)
Where two headings read alike, the source gives them in different places.

Tests used:
in vitro [1] = type: cell-based; details: mouse
Experimental: Primary cultures of cardiac cells (CC) were obtained as reported in [50]. The cultures were sustained in Dulbecco’s modified Eagle’s medium (DMEM) supplemented with 10% horse serum, 5% fetal bovine serum (FBS), 2.5 mM CaCl2, 1 mM L-glutamine, and 2% chicken embryo extract. Cell cultures were maintained at 37 °C in an atmosphere of 5% CO2, and assays were run at least three times in triplicate.
Cardiac cell cultures were incubated for 24 h at 37 °C with different concentrations of the compounds (up to 200 µM) diluted in DMEM (without phenol red). Their morphology and spontaneous contractibility were evaluated by light microscopy and then the cellular viability was determined by the PrestoBlue® assay. For this colorimetric bioassay, PrestoBlue® (Invitrogen, Waltham, MA, USA) was added to each well (using a 10:1 medium/dye), the plate was further incubated for 24 h followed by optical density (OD) measurement performed at 570 and 600 nm, as recommended by the manufacturer.

[2] = tested on: Salmonella enterica serovar Typhimurium TA100; test: Salmonella/microsome assay, TA100
[3] = tested on: Salmonella enterica serovar Typhimurium TA102
[4] = tested on: trypomastigote forms of T. cruzi (Y strain); test: Trypanocidal activity on bloodstream trypomastigotes; type: cell-based, Trypanosoma cruzi; details: Trypanosoma cruzi; bloodstream trypomastigotes, Y strain; 24 h at 37 °C
Experimental: Bloodstream trypomastigote forms (BT) of the Y strain were obtained from infected albino Swiss mice at the peak of parasitemia, isolated by differential centrifugation and resuspended in DMEM to a parasite concentration of 10^7 cells/mL in the presence of 10% of mouse blood. This suspension (100 µL) was added in the same volume of 13 (a–d) and 14 (a–d) previously prepared at twice the desired final concentrations.

[5] = tested on: Salmonella enterica serovar Typhimurium TA104; test: Salmonella/microsome assay, TA104
Experimental: (§1) Salmonella enterica serovar Typhimurium (S. typhimurium) strains TA97, TA98, TA100, TA104 and TA102 from the authors’ stock were used as described in the mutagenicity assay.
(§2) To determine the cytotoxic effects, after 30 min pre-incubation, the assay mixtures were diluted in 0.9% NaCl (w/v) to obtain a suspension containing 2 × 10^2 cells/mL. […] The plates were then incubated at 37 °C for 24 h and the colonies counted. All the experiments were conducted in triplicate and were repeated at least twice. Statistical differences between the groups were analyzed by a two-way ANOVA (p < 0.05) and Tukey’s post hoc test.

[6] = Salmonella/microsome assay, TA104; details: Salmonella enterica serovar Typhimurium, S. typhimurium TA104 with S9 mix, LC50 (bacterial cytotoxicity) TA104, presence of S9 mix
Experimental: as §1, §2

[7] = tested on: intracellular forms of T. cruzi (Tulahuen strain transfected with β-galactosidase); test: Activity against intracellular T. cruzi in L929 cells; type: cell-based, Trypanosoma cruzi; details: 96 h; for EC50: intracellular forms, Tulahuen strain
Experimental: Tissue culture-derived trypomastigotes (Tulahuen strain expressing the E. coli β-galactosidase gene) were maintained in L929 cell lines and collected from the supernatant after 96 h of parasite infection, following previously established protocols. Briefly, after 24 h of L929 platting (4 × 10^3 cells/well), the cultures were incubated with trypomastigotes (10:1 parasite/host cell ratio) for 2 h at 37 °C. Then, the cell cultures were rinsed to remove non-internalized parasites and then further incubated for 24 h at 37 °C. Then the infected cultures were followed using two sequential protocols. […] After this period, 50 µL chlorophenol red glycoside (500 µM) in 0.5% Nonidet P40 was added to each well and the plate was incubated for more than 18 h at 37 °C, after which the absorbance was measured at 570 nm. […] Controls with untreated and Bz-treated cells are run in parallel. The results were expressed as the percent difference in the reduction between treated and untreated cells.

in vitro [8] = type: cell-based; details: human
Experimental: Human hepatocellular carcinoma (HepG2) and Chinese Hamster Ovary (CHO-K1) cells obtained from the American Type Culture Collection (Manassas, VA, USA) were cultured in Eagle’s medium (MEM, Gibco®, Waltham, MA, USA) containing 10% fetal bovine serum (FBS) plus 100 µg/mL streptomycin and 100 µg/mL penicillin at 37 °C in a 5% CO2 atmosphere. Logarithmic-phase cells were used in all the experiments.
Fresh HepG2 and CHO-K1 cells were seeded at a density of 1 × 10^4/well. […] Briefly, after treatment, the culture medium was replaced by 90 μL fresh culture medium and 10 μL WST-1 reagent and incubated at 37 °C and 5% CO2 for 3 h. The absorbance was then measured at 440 nm according to the kit protocol.

## CC(=O)Nc1ccccc1C(F)(F)C(=O)NCC[C@@H]1C[C@H](CC(=O)OC(C)(C)C)OC(C)(C)O1 [Compound 13a, tert-Butyl 2-((4R,6R)-6-(2-(2-(2-acetamidophenyl)-2,2-difluoroacetamido)ethyl)-2,2-dimethyl-1,3-dioxan-4-yl)acetate]
In vitro [1]
  CC50 at 24 h: > 500 µM
[2]; +S9, 3 µM
  revertant His+ colonies TA100: 211 ± 37
[2]; +S9, 15 µM
  revertant His+ colonies TA100: 223 ± 15
[2]; +S9, 30 µM
  revertant His+ colonies TA100: 241 ± 36
[2]; +S9, 150 µM
  revertant His+ colonies TA100: 244 ± 14
[2]; +S9, 300 µM
  revertant His+ colonies TA100: 270 ± 45
[2]; +S9, 1500 µM
  revertant His+ colonies TA100: 290 ± 31
[2]; −S9, 3 µM
  revertant His+ colonies TA100: 117 ± 43
[2]; −S9, 15 µM
  revertant His+ colonies TA100: 136 ± 13
[2]; −S9, 30 µM
  revertant His+ colonies TA100: 139 ± 13
[2]; −S9, 150 µM
  revertant His+ colonies TA100: 142 ± 5
[2]; −S9, 300 µM
  revertant His+ colonies TA100: 162 ± 37
[2]; −S9, 1500 µM
  revertant His+ colonies TA100: 179 ± 34
[3]; +S9, 3 µM
  revertant His+ colonies TA102: 384 ± 32
[3]; +S9, 15 µM
  revertant His+ colonies TA102: 399 ± 32
[3]; +S9, 30 µM
  revertant His+ colonies TA102: 407 ± 21
[3]; +S9, 150 µM
  revertant His+ colonies TA102: 411 ± 46
[3]; +S9, 300 µM
  revertant His+ colonies TA102: 448 ± 52
[3]; +S9, 1500 µM
  revertant His+ colonies TA102: 501 ± 20
[3]; −S9, 3 µM
  revertant His+ colonies TA102: 458 ± 19
[3]; −S9, 15 µM
  revertant His+ colonies TA102: 435 ± 22
[3]; −S9, 30 µM
  revertant His+ colonies TA102: 433 ± 7
[3]; −S9, 150 µM
  revertant His+ colonies TA102: 380 ± 12
[3]; −S9, 300 µM
  revertant His+ colonies TA102: 345 ± 48
[3]; −S9, 1500 µM
  revertant His+ colonies TA102: Cytotoxic
[4]
  EC50: > 500 µM
[5]; +S9, 3 µM
  revertant His+ colonies TA104: 390 ± 49
[5]; +S9, 15 µM
  revertant His+ colonies TA104: 417 ± 15
[5]; +S9, 30 µM
  revertant His+ colonies TA104: 467 ± 19
[5]; +S9, 150 µM
  revertant His+ colonies TA104: 330 ± 9
[5]; +S9, 300 µM
  revertant His+ colonies TA104: 268 ± 37
[5]; +S9, 1500 µM
  revertant His+ colonies TA104: Cytotoxic
[5]; −S9, 3 µM
  revertant His+ colonies TA104: 264 ± 27
[5]; −S9, 15 µM
  revertant His+ colonies TA104: 307 ± 18
[5]; −S9, 30 µM
  revertant His+ colonies TA104: 314 ± 26
[5]; −S9, 150 µM
  revertant His+ colonies TA104: 315 ± 36
[5]; −S9, 300 µM
  revertant His+ colonies TA104: 316 ± 33
[5]; −S9, 1500 µM
  revertant His+ colonies TA104: 350 ± 21
[6]
  CC50 at 30 min: 1280 ± 21.1 µM
[7]; Trypanosoma cruzi, TULAHUEN, L929, 96 h
  EC50: ≥ 50 µM
[7]; fixed concentration 10 µM
  10µM (% of Parasite Lysis): 17.92 ± 11.02%
[7]
  EC50: > 50 µM
In vitro [8]
  CC50 at 24 h: > 1000 µM
